The source of these data is patent publication US20100166727A1, “S-Adenosylmethionine And Methylthioadensosine In Chemoprevention And Treatment Of Colon Polyps And Cancer” (UNIVERSITY OF SOUTHERN CALIFORNIA, priority 2007, published 2010).

Common to all, as to assay type: cell-based, human
Data set [1] concerns MAT2A. As to the kind of experiment: MAT2A mRNA levels by real-time PCR in HT-29 cells. To be noted: for MAT2A mRNA levels after growth factor: growth factor 100 ng/ml. How it is done:
(§1) HT-29 and RKO cells were obtained from the Cell Culture Core of the USC Liver Disease Research Center and grown according to instructions provided by the American Type Culture Collection (ATCC, Rockville, Md.). Prior to treatment with growth factors, SAMe or MTA, medium was changed to 0.1% FBS overnight.
RNA interference (RNAi) experiments were performed using Lipofectamine RNAiMax (Invitrogen) according to the manufacturer's instructions. Small interfering RNA (siRNA) oligonucleotides for MAT2A and scrambled siRNA were synthesized by the USC Norris Comprehensive Cancer Center Microchemical Core Laboratory, and annealed to form duplexes. Stealth RNAi for MAT2A and Stealth RNAi negative control duplexes were synthesized by Invitrogen (Carlsbad, Calif.). The following siRNA sequences were used: si-MAT2A #1, 5′-[…]-3′ (sense) and 5′-[…]-3′ (antisense); si-control with scrambled sequence (negative control siRNA having no perfect matches to known human genes), 5′-[…]dTdT-3′ (sense) and 5% […]dTdT-3′ (antisense); stealth RNAi-MAT2A #5, 5′-[…]-3′ (sense) and 5′-[…]-3′ (antisense). […]
(§2) Total RNA was isolated by the EZgeno total RNA isolation kit (Genemega, San Giego, Calif.), and subjected to reverse transcription (RT) by using M-MLV Reverse transcriptase (Invitrogen). 2 μl of RT product was subjected to quantitative real-time PCR analysis. The primers and TaqMan probes for MAT2A, MAT2β and Universal PCR Master Mix were purchased from ABI (Foster City, Calif.). Hypoxanthine phosphoribosyl-transferase 1 (HPRT1) and ubiquitin C (UBC) were used as housekeeping genes (48). The thermal profile consisted of 1 cycle at 95° C. for 15 minutes followed by 40 cycles at 95° C. for 15 seconds and at 60° C. for 1 minute. The expression of MAT2A and MAT2β was checked by normalizing the Ct of MAT2A and MAT2β to that of the control housekeeping gene (HPRT1 or UBC) (49). The delta Ct obtained was used to find the relative expression of MAT genes according to the formula: Relative expression=2·^ΔCt, where ΔCt=ΔCt of MAT genes in colon cancer or treated cells—ΔCt of MAT genes in normal colon or control cells.
On the technique in general: In qPCR the cycle at which signal appears reflects the starting amount.

Data set [2] has as its system MAT2A. In words: MAT2A mRNA levels by real-time PCR in RKO cells. As to conditions: for MAT2A mRNA levels after growth factor / MAT2A expression: RKO cells; for MAT2A mRNA levels after growth factor: growth factor 100 ng/ml. How it is done:
as §1
RNA interference (RNAi) experiments were performed using Lipofectamine RNAiMax (Invitrogen) according to the manufacturer's instructions. Small interfering RNA (siRNA) oligonucleotides for MAT2A and scrambled siRNA were synthesized by the USC Norris Comprehensive Cancer Center Microchemical Core Laboratory, and annealed to form duplexes. Stealth RNAi for MAT2A and Stealth RNAi negative control duplexes were synthesized by Invitrogen (Carlsbad, Calif.). The following siRNA sequences were used: si-MAT2A #1, 5′-[…]-3′ (sense) and 5′-[…]-3′ (antisense); si-control with scrambled sequence (negative control siRNA having no perfect matches to known human genes), 5′-[…]dTdT-3′ (sense) and 5% […]dTdT-3′ (antisense); stealth RNAi-MAT2A #5, 5′-[…]-3′ (sense) and 5′-[…]-3′ (antisense). Transfection was allowed to proceed 72 hours before collection for different assays.
as §2

Data set [3] concerns HT-29 cells. In words: Cellular SAMe and MTA levels in HT-29 cells. As to conditions: mitogen 100 ng/ml. On the procedure: as §1
(§3) Cellular SAMe and MTA levels were measured (51) and polyamine levels were determined (52).

Data set [4] has as its system HT-29 cells. In words: Polyamine levels in HT-29 cells. To be noted: 6 hrs, mitogen 100 ng/ml. On the procedure:
as §1, §3

For data set [5], the system named is ornithine decarboxylase (ODC). As to the kind of experiment: ODC expression by real-time PCR in HT-29 cells. As to conditions: 6 hrs, mitogen 100 ng/ml.
A further data set concerns SPD syn. As to the kind of experiment: SPD syn expression by real-time PCR in HT-29 cells. As to conditions: 6 hrs, mitogen 100 ng/ml.
In data set [6] the test system is spermine synthase (SPM syn). As to the kind of experiment: SPM syn expression by real-time PCR in HT-29 cells. To be noted: 6 hrs, mitogen 100 ng/ml.
In the next data set the test system is RKO cells. As to the kind of experiment: Apoptosis in RKO cells (HOECHST staining, Annexin V). On the procedure: Apoptosis was assessed by HOECHST staining (34). Briefly, RKO cells were grown on coverslips and treated with RNAi#1 for 24 hrs and cells were fixed with paraformaldehyde and stained with 8 μg/ml HOECHST 33258 dye for 30 min. Cells with bright, fragmented, condensed nuclei were identified as apoptotic cells using the Nikon Eclipse TE300 fluorescent microscope. At least 5 random fields (at ×300) were counted.
In these experiments the total treatment duration was limited to 16 hrs to avoid the apoptotic effect. […] Apoptosis was measured by Hoechst staining or Annexin V and propidium iodide staining on flow cytometry.

The subject of data set [7] is HT-29 cells. In words: Cell growth by MTT assay in HT-29 cells. How it is done: Cell growth was measured by the cell growth determination kit MTT from Sigma (St. Louis, Mo.). The MTT assay measures the cell proliferation rate and reduction in cell viability. HT-29 or RKO cells (1×10^4/well) were plated in 96-well plates and treated with growth factors (all 100 ng/ml), SAMe (0.5 to 5 mM), MTA (0.5 to 1 mM), alone or in combination for 16 hrs in serum-free medium. To determine the effect of MAT2A RNAi on mitogen-induced changes in MTT, cells were first treated with RNAi for 48 hrs followed by mitogen treatment for another 24 hrs.

Take EGF: Epidermal growth factor, mitogen: the “MAT2A mRNA levels after growth factor” value in the data set on MAT2A [1] (HT-29 cells) is recorded as “doubled”. In addition, in the data set with MAT2A [2], the “MAT2A mRNA levels after growth factor” value was “doubled”. Also, in the data set with HT-29 cells [3] (6 hrs), the MTA level is listed as 0.054 ± 0.001 nmol/mg protein and the SAMe level was 0.54 ± 0.04 nmol/mg protein. In the data set on HT-29 cells [3] (16 hrs), this substance had an MTA level of 0.061 ± 0.010 nmol/mg protein and an SAMe level of 0.63 ± 0.06 nmol/mg protein. In the data set on HT-29 cells [4], this substance displayed a Putrescine of 0.32 ± 0.01 nmol/mg protein, a Spermidine of 2.19 ± 0.23 nmol/mg protein and a Spermine of 12.55 ± 2.04 nmol/mg protein. In [5], the ODC expression was 1.5 ± 0.07 fold of control. Also, in the data set on SPD syn, the SPD syn expression is on record as 1.7 ± 0.08 fold of control. In [6], the SPM syn expression is reported as 1.1 ± 0.02 fold of control.
As to “IGF-1: insulin-like growth factor-1, mitogen”, the “MAT2A mRNA levels after growth factor” value in the data set on MAT2A [1] (HT-29 cells) was “doubled”. In addition, in the data set with MAT2A [2], the “MAT2A mRNA levels after growth factor” value is recorded as “doubled”. Further, in the data set on HT-29 cells [3] (6 hrs), the MTA level came to 0.054 ± 0.003 nmol/mg protein. In the data set on HT-29 cells [3] (16 hrs), this substance gave an MTA level of 0.087 ± 0.025 nmol/mg protein and an SAMe level of 1.03 ± 0.03 nmol/mg protein. In the data set on HT-29 cells [4], this substance had a Putrescine of 0.22 ± 0.02 nmol/mg protein, a Spermidine of 2.82 ± 0.09 nmol/mg protein and a Spermine of 12.55 ± 2.50 nmol/mg protein. Besides, the ODC expression in data set [5] is reported as 1.5 ± 0.08 fold of control. In addition, the SPD syn expression in the data set on SPD syn is recorded as 2.2 ± 0.20 fold of control. In addition, the SPM syn expression in data set [6] is given as 1.1 ± 0.03 fold of control.
Regarding “RNAi#1: siRNA against MAT2A, sense 5′-ACACAUUGGAUAUGAUGAUTT-3′ (antisense AUCAUCAUAUCCAAUGUGUTT; chemistry not given here) [reference compound]”, the “lowering of MAT2A expression” value in the data set on MAT2A [2] is 90%. The results for the MAT2A expression with MAT2A [2] (24 hrs) and in the data set on MAT2A [2] (48 hrs) were 25 % of scrambled control and 9 % of scrambled control, respectively. Further, the apoptosis result in the data set with RKO cells (24 hrs of RNAi treatment) was “significant increase in apoptosis”; with RKO cells (48 hrs of RNAi treatment) it was “more pronounced”.
Turning to “RNAi#5: stealth RNAi against MAT2A, sense 5′-CCACCUACAGCCAAGUGGCAGAUUU-3′ (antisense AAAUCUGCCACUUGGCUGUAGGUGG; chemistry not given here) [reference compound]”, the “MAT2A mRNA level” value with MAT2A [1] (HT-29 cells, RNAi 48 hrs) is 50 % of control. Also, the “lowering of MAT2A expression” value with MAT2A [1] (at 72 hrs) came to 50%. In addition, the “lowering of MTT value” in the data set on HT-29 cells [7] (HT-29 or RKO cells, RNAi 48 hrs then another 24 hrs) is “about 30%”. For the same substance, the “mitogenic effect of leptin, IGF-1 and EGF” value with HT-29 cells [7] (RNAi 48 hrs, then growth factors 24 hrs) is “blocked the ability of leptin, IGF-1 and EGF to fully exert their mitogenic effect”. Besides, the apoptosis result with RKO cells (after 24 hrs) is “No apoptosis was detected”.
